From the NIST ThermoML archive (doi:10.1016/j.tca.2005.04.002)
Numbers after ± are expanded uncertainties.

Assay: mn = molality of the nth substance listed, in mol/kg
Settings: 298.15 K; 101.33 kPa; Liquid; Calvet calorimetry; m1 = 0.1

molar enthalpy of solution [kcal/mol] | Compound
3.38 ± 0.0526 | NCC(=O)O [2-aminoacetic acid] + O
2.69 ± 0.0454 | N[C@@H](CO)C(=O)O [L-serine] + O
1.86 ± 0.0359 | C[C@H](N)C(=O)O [(S)-2-aminopropanoic acid] + O
